Data published in publication PMC10178204, “Peptaibol Analogs Show Potent Antibacterial Activity against Multidrug Resistant Opportunistic Pathogens” (International Journal of Molecular Sciences, 2023).
≈ marks a conversion by molar mass, not a printed value. Where “and” joins values, the source holds several entries; their conditions need not be identical. Equal values may be shown once. Non-standard residues stand in square brackets, D forms with d. Residues, ends and D or L forms follow the SMILES beside them. *: point of attachment. Leu(ol) = CC(C)C[C@H](N)CO; Octanoyl = CCCCCCCC(=O)*; Aib = CC(C)(N)C(=O)O

How the values were obtained:
[1] = tested on: Acinetobacter baumannii ATCC 17978; details: for MBC Aba: MHB, 5 × 10^5 CFU/mL, 18 h, 35 °C, triplicate; for MIC against A. baumannii, in molar units: corresponding to 2 and 8 μg/mL
Source text: (§1) The antibacterial activity of the peptides was initially assessed on a panel of representative Gram-positive and Gram-negative organisms of high clinical relevance and commonly responsible for bacterial infections in both animals and humans. Bacillus subtilis ATCC 6633 (Bsu) was also included as a rod-shaped model Gram-positive organism. This first panel comprised: Enterococcus faecalis ATCC 29212 (Efa); Streptococcus pyogenes ATCC 12344 (Spy); and Staphylococcus aureus ATCC 25923 (Sau); Gram-negative: Escherichia coli CCUGT (Eco), Klebsiella pneumoniae ATCC 13833 (Kpn), Acinetobacter baumannii ATCC 17978 (Aba), and Pseudomonas aeruginosa ATCC 27853 (Pae) (Table 2). Both the minimum inhibitory concentration (MIC, Table 2) and the minimum bactericidal concentration (MBC, Table S1, Supporting Material) were determined.
(§2) The minimum inhibitory concentration (MIC) and the minimum bactericidal concentration (MBC) of the compounds were determined in triplicate using Mueller–Hinton broth (MHB). […] Therefore, we decided to dissolve all peptides in DMSO to a final concentration of 25 mg/mL, for consistency. The bacteria inoculum was 5 × 10^5 CFU/mL, as recommended by CLSI (Document M07-A10, 2015). […] Reference-type strains, including representatives of both Gram-positive bacteria (Bacillus subtilis ATCC 6633, Enterococcus faecalis ATCC 29212, Staphylococcus aureus ATCC 25923, the methicillin-resistant Staphylococcus aureus ATCC 43300 (MRSA), Streptococcus pyogenes ATCC 12344) and Gram-negative bacteria (Escherichia coli CCUGT, Klebsiella pneumoniae ATCC 13833, Pseudomonas aeruginosa ATCC 27853, and Acinetobacter baumannii ATCC 17978), were acquired from ATCC or CCUG culture collections. Other antibiotic-resistant clinical isolates were present in our collection at the University Teaching Hospital (Azienda Ospedaliero-Universitaria Senese ‘Santa Maria alle Scotte’) in Siena, Tuscany, Italy. Specifically, MDR carbapenem-hydrolyzing class D β-lactamase-producing Acinetobacter baumannii and metallo-β-lactamase-producing Pseudomonas aeruginosa were used in this study (Table 4).

[2] = tested on: Bacillus subtilis ATCC 6633; details: MHB, 5 × 10^5 CFU/mL, 18 h, 35 °C, triplicate
Source text: as §1, §2

[3] = tested on: Enterococcus faecalis ATCC 29212; details: MHB, 5 × 10^5 CFU/mL, 18 h, 35 °C, triplicate
Source text: as §1, §2

[4] = tested on: Escherichia coli CCUGT; details: MHB, 5 × 10^5 CFU/mL, 18 h, 35 °C, triplicate
Source text: as §1, §2

[5] = tested on: Klebsiella pneumoniae ATCC 13833; details: MHB, 5 × 10^5 CFU/mL, 18 h, 35 °C, triplicate
Source text: as §1, §2

[6] = tested on: Pseudomonas aeruginosa ATCC 27853; details: MHB, 5 × 10^5 CFU/mL, 18 h, 35 °C, triplicate
Source text: as §1, §2

[7] = tested on: Staphylococcus aureus ATCC 25923; details: MHB, 5 × 10^5 CFU/mL, 18 h, 35 °C, triplicate
Source text: as §1, §2

[8] = tested on: Streptococcus pyogenes ATCC 12344; details: MHB, 5 × 10^5 CFU/mL, 18 h, 35 °C, triplicate
Source text: as §1, §2

[9] = tested on: A. baumannii SI-12 (OXA-23); details: MHB, 5 × 10^5 CFU/mL, 18 h, 35 °C, triplicate
Protocol: as §2

[10] = tested on: A. baumannii SI-310 (OXA-24); details: colistin-resistant isolate; MHB, 5 × 10^5 CFU/mL, 18 h, 35 °C, triplicate
Protocol: as §2

[11] = tested on: A. baumannii SI-648 (OXA-23, OXA-51-like); details: MHB, 5 × 10^5 CFU/mL, 18 h, 35 °C, triplicate
Protocol: as §2

[12] = tested on: P. aeruginosa 101/1477 (IMP-1); details: MHB, 5 × 10^5 CFU/mL, 18 h, 35 °C, triplicate
Protocol: as §2

[13] = tested on: P. aeruginosa 506/99 (VIM-2); details: MHB, 5 × 10^5 CFU/mL, 18 h, 35 °C, triplicate
Protocol: as §2

[14] = tested on: P. aeruginosa VA-182/00 (VIM-2); details: MHB, 5 × 10^5 CFU/mL, 18 h, 35 °C, triplicate
Protocol: as §2

[15] = tested on: P. aeruginosa VR-143/97 (VIM-1); details: MHB, 5 × 10^5 CFU/mL, 18 h, 35 °C, triplicate
Protocol: as §2

[16] = tested on: S. aureus ATCC 43300 (MRSA); details: MHB, 5 × 10^5 CFU/mL, 18 h, 35 °C, triplicate
Protocol: as §2

[17] = tested on: blood agar plate (Columbia CNA Agar); test: Hemolysis on blood agar plate; details: 35 ± 2 °C, 24 h; for Hemolysis (class): 50 μg peptide (2 μL of 25 mg/mL in DMSO) spotted on blood agar, visual, triplicate; for Hemolysis (d, diameter of hemolysis zone): 50 μg spotted on blood agar, average of triplicate
Protocol: Hemolysis zones were visually determined and measured. […] For two additional peptides (6 and 15), only a small hemolysis zone (diameter 4–5 mm) was visible, as compared to that of the positive control (Triton X-100, 13 mm).
Briefly, 2 μL of each peptide solution in DMSO (25 mg/mL), corresponding to 50 μg, was spotted on the surface of a blood agar plate (Columbia CNA Agar, Becton Dickinson Italia S.p.A., Florence, Italy). The plate was then incubated at 35 ± 2 °C for 24 h and visually inspected for the presence of hemolysis zones (see Figure S13, Supplementary Material). The experiment was performed in triplicate. Table 2 reports the average value of the diameter of hemolysis zones measured in each individual experiment. Triton X-100 was used as a positive control (diameter of the hemolysis zone: 13 mm), while DMSO was used as a negative control.
Figure S13. Implementation of the hemolysis test as described in Bechlars et al.. After spotting
2 µL (50 µg) of each compound at a random location on the blood agar plate and incubation at 35 ±
2 °C for 24 h, the plates were manually inspected for the presence of hemolysis zones. Triton X-100
and DMSO were used as the positive and negative controls, respectively. Results were interpreted
(1 picture or pasted object on this page, not shown here)

| SMILES | MBC Aba [1] | MIC against A. baumannii, in molar units [1] | MBC Bsu [2] | MIC Bsu [2] | MBC Efa [3] | MIC Efa [3] | MIC Eco [4] | MIC Kpn [5] | MBC Sau [7] | MIC Sau [7] | MBC Spy [8] | MIC Spy [8] | MBC A. baumannii SI-12 (OXA-23) [9] | MIC A. baumannii SI-12 (OXA-23) [9] | MBC A. baumannii SI-310 (OXA-24) [10] | MIC A. baumannii SI-310 (OXA-24) [10] | MBC A. baumannii SI-648 (OXA-23, OXA-51-like) [11] | MIC A. baumannii SI-648 (OXA-23, OXA-51-like) [11] | MIC P. aeruginosa 101/1477 (IMP-1) [12] | MIC P. aeruginosa 506/99 (VIM-2) [13] | also measured |
| --- | --- | --- | --- | --- | --- | --- | --- | --- | --- | --- | --- | --- | --- | --- | --- | --- | --- | --- | --- | --- | --- |
| CCCCCCCC(=O)NC(C)(C)C(=O)NCC(=O)N[C@@H](CC(C)C)C(=O)NC(C)(C)C(=O)NCC(=O)NCC(=O)N[C@@H](CC(C)C)C(=O)NC(C)(C)C(=O)N[C@@H](CCCCN)C(=O)N[C@H](C(=O)N[C@H](CO)CC(C)C)[C@@H](C)CC [Peptide 9, 1-Oct-Aib-Gly-Leu-Aib-Gly-Gly-Leu-Aib-Lys-Ile-Lol] (Octanoyl-[Aib]GL[Aib]GGL[Aib]KI[Leu(ol)]) | 8 µg/mL (≈ 7.03 µM) | 1.8 to 7.2 µM | 16 µg/mL (≈ 14.1 µM) | 4 µg/mL (≈ 3.52 µM) | 4 µg/mL (≈ 3.52 µM) | 4 µg/mL (≈ 3.52 µM) | > 128 µg/mL | > 128 µg/mL | 16 µg/mL (≈ 14.1 µM) | 16 µg/mL (≈ 14.1 µM) | 32 µg/mL (≈ 28.1 µM) | 16 µg/mL (≈ 14.1 µM) | 32 µg/mL (≈ 28.1 µM) | 32 μg/mL and 32/32 μg/mL | 32 µg/mL (≈ 28.1 µM) | 32 μg/mL and 32/32 μg/mL | 32 µg/mL (≈ 28.1 µM) | 32 μg/mL and 32/32 μg/mL | > 128 µg/mL | > 128 µg/mL | MIC Pae [6]: > 128 µg/mL; MIC P. aeruginosa VA-182/00 (VIM-2) [14]: > 128 µg/mL; MIC P. aeruginosa VR-143/97 (VIM-1) [15]: > 128 µg/mL; MBC S. aureus ATCC 43300 (MRSA) [16]: 8 µg/mL (≈ 7.03 µM); MIC S. aureus ATCC 43300 (MRSA) [16]: 4 µg/mL (≈ 3.52 µM); Hemolysis (class) [17]: +; Hemolysis (d, diameter of hemolysis zone) [17]: 10 mm |
| CCCCCCCC(=O)NC(C)(C)C(=O)NCC(=O)N[C@@H](CC(C)C)C(=O)NC(C)(C)C(=O)NCC(=O)N[C@@H](CCCCN)C(=O)N[C@@H](CC(C)C)C(=O)NC(C)(C)C(=O)NCC(=O)N[C@H](C(=O)N[C@H](CO)CC(C)C)[C@@H](C)CC [Peptide 10, 1-Oct-Aib-Gly-Leu-Aib-Gly-Lys-Leu-Aib-Gly-Ile-Lol] | > 128 µg/mL | 1.8 to 7.2 µM | 16 µg/mL (≈ 14.1 µM) | 4 µg/mL (≈ 3.52 µM) | 16 µg/mL (≈ 14.1 µM) | 4 µg/mL (≈ 3.52 µM) | 64 µg/mL (≈ 56.3 µM) | 16 µg/mL (≈ 14.1 µM) | 16 µg/mL (≈ 14.1 µM) | 8 µg/mL (≈ 7.03 µM) | 16 µg/mL (≈ 14.1 µM) | 4 µg/mL (≈ 3.52 µM) | 32 µg/mL (≈ 28.1 µM) | 32 μg/mL and 32/32 μg/mL | 16 µg/mL (≈ 14.1 µM) | 16 μg/mL and 16/16 μg/mL | 16 µg/mL (≈ 14.1 µM) | 16 μg/mL and 16/16 μg/mL | > 128 µg/mL | > 128 µg/mL | MBC Eco [4]: 128 µg/mL (≈ 113 µM); MBC Kpn [5]: 64 µg/mL (≈ 56.3 µM); MBC Pae [6]: 128 µg/mL (≈ 113 µM); MIC P. aeruginosa VA-182/00 (VIM-2) [14]: > 128 µg/mL; MIC P. aeruginosa VR-143/97 (VIM-1) [15]: > 128 µg/mL; MBC S. aureus ATCC 43300 (MRSA) [16]: 8 µg/mL (≈ 7.03 µM); MIC S. aureus ATCC 43300 (MRSA) [16]: 4 µg/mL (≈ 3.52 µM); Hemolysis (class) [17]: +; Hemolysis (d, diameter of hemolysis zone) [17]: 11 mm |
